Data from patent US6867320B2, “Substituted phenylalkanoic acid derivatives and use thereof” (Asahi Kasei Pharma Corporation, priority 2002, dated 2005).

Legend:
[1] = test system: LTB4 production from IgE-stimulated RBL-2H3 cells; assay: Suppressing action on LTB4 production from IgE-stimulated RBL-2H3 cells; format: cell-based; conditions: Rattus norvegicus, 10 min, IgE/DNP-BSA stimulated RBL-2H3 cells, read-out: LTB4 production suppression ratio
Procedure, shortened: (§1)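 Rat RBL-2H3 mastocytoma cells, sensitized 30 min with anti-DNP-BSA IgE, then given test compound in 0.5% FBS medium and stimulated with DNP-BSA (100 ng/ml final). Supernatant PGD2 and LTB4 were measured by EIA after 10 min. Suppression ratio is calculated against unstimulated and stimulant-only controls.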

[2] = test system: IgE-stimulated footpad edema; assay: Mouse IgE-stimulated footpad edema reaction; format: in vivo; conditions: C57BL/6 male mice, oral 0.1 to 500 mg/kg, compared with positive control group
Procedure, shortened: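 Male C57BL/6 mice (9–11 weeks, n=5) sensitised one day earlier by footpad injection of anti-DNP-BSA IgE serum; compound given orally in 0.5% methylcellulose at 0.1 to 500 mg/kg, then DNP-BSA i.v. 2 h later. Footpad swelling measured at 10–30 min, expressed as AUC and % suppression versus vehicle control.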

[3] = test system: zymosan-stimulated footpad edema; assay: Mouse zymosan-stimulated footpad edema reaction; format: in vivo; conditions: ICR female mice, oral 0.1 to 500 mg/kg, compared with positive control group
Procedure, shortened: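 Female ICR mice (6–7 weeks, n=8) dosed orally at 0.1 to 500 mg/kg in 0.5% methylcellulose; 1 h later zymosan (1 mg/ml, 0.02 ml) injected s.c. into right hind footpad. Edema volume at 1 and 2 h gave AUC to 2 h; suppression (%) calculated against positive control AUC.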

[4] = test system: PGE2 production from IL-1β-stimulated MG-63 cells; assay: Suppressing action on PGE2 production from IL-1β-stimulated MG-63 cells; format: cell-based; conditions: Homo sapiens, IL-1β 1 ng/ml, 18 hours, read-out: PGE2 production suppression ratio
Procedure, shortened: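 Human osteosarcoma MG-63 cells (2×10^4/well) switched to 0.5% FBS medium, treated with compound, then stimulated with IL-1β at 1 ng/ml final for 18 h. Supernatant PGE2 measured by EIA; suppression ratio calculated against stimulated and unstimulated wells.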

[5] = test system: PGD2 production from IgE-stimulated RBL-2H3 cells; assay: Suppressing action on PGD2 production from IgE-stimulated RBL-2H3 cells; format: cell-based; conditions: Rattus norvegicus, 10 min, IgE/DNP-BSA stimulated RBL-2H3 cells, read-out: PGD2 production suppression ratio
Procedure, shortened: as §1

Row | SMILES | inhibition at 0.4 µM [1] [%] | suppression of footpad edema caused by IgE stimulation [2] | suppression of footpad edema caused by zymosan [3] | inhibition at 0.4 µM [4] [%] | inhibition at 0.4 µM [5] [%]
1 | O=C(O)CCc1ccc(OCC2CCCC2)c(-c2ccc3c(ccn3CCO)c2)c1 [Compound 243, 3-{4-cyclopentylmethyloxy-3-[1-(2-hydroxyethyl)-1H-indol-5-yl]phenyl}propionic acid] | ≥ 50 | suppressed the footpad edema | suppressed footpad edema | ≥ 50 | ≥ 50
2 | O=C(O)CCc1ccc(OCC2CCCCC2)c(-c2cnc3ccccc3c2)c1 [Compound 317, 3-[4-cyclohexylmethyloxy-3-(quinolin-3-yl)phenyl]propionic acid] | ≥ 50 | suppressed the footpad edema | suppressed footpad edema | ≥ 50 | ≥ 50
3 | Nc1ccc2cc(-c3cc(CCC(=O)O)ccc3OCC3CCCC3)ccc2c1 [Compound 012, 3-[3-(6-aminonaphthalen-2-yl)-4-cyclopentylmethyloxyphenyl]propionic acid] | ≥ 50 | suppressed the footpad edema | suppressed footpad edema | ≥ 50 | ≥ 50
4 | Nc1nc2ccc(-c3cc(CCC(=O)O)ccc3OC3CCCC3)cc2s1 [Compound 293, 3-[3-(2-aminobenzothiazol-6-yl)-4-cyclopentyloxyphenyl]propionic acid] | ≥ 50 | suppressed the footpad edema | suppressed footpad edema | ≥ 50 | ≥ 50
5 | CCn1ccc2cc(-c3cc(CCC(=O)O)ccc3OC3CCCCC3)ccc21 [Compound 248, 3-[4-cyclohexyloxy-3-(1-ethyl-1H-indol-5-yl)phenyl]propionic acid] | ≥ 50 | suppressed the footpad edema | suppressed footpad edema | ≥ 50 | ≥ 50
6 | Cn1ccc2cc(-c3cc(CCC(=O)O)ccc3OC3CCCC3)ccc21 [Compound 108, 3-[4-cyclopentyloxy-3-(1-methyl-1H-indol-5-yl)phenyl]propionic acid] | ≥ 50 | suppressed the footpad edema | suppressed footpad edema | ≥ 50 | ≥ 50
7 | CCn1ccc2cc(-c3cc(CCC(=O)O)ccc3OCC3CCCC3)ccc21 [Compound 236, 3-[4-cyclopentylmethyloxy-3-(1-ethyl-1H-indol-5-yl)phenyl]propionic acid] | ≥ 50 | suppressed the footpad edema | suppressed footpad edema | ≥ 50 | ≥ 50
8 | O=C(O)CCc1ccc(OCc2ccc(F)cc2)c(-c2ccc3[nH]ccc3c2)c1 [Compound 146, 3-[4-(4-fluorophenylmethyloxy)-3-(1H-indol-5-yl)phenyl]propionic acid] | ≥ 50 | suppressed the footpad edema | suppressed footpad edema | ≥ 50 | ≥ 50
9 | O=C(O)CCc1ccc(OCC2CCCC2)c(-c2ccc3[nH]ccc3c2)c1 [Compound 100, 3-[4-cyclopentylmethyloxy-3-(1H-indol-5-yl)phenyl]propionic acid] | ≥ 50 | suppressed the footpad edema | suppressed footpad edema | ≥ 50 | ≥ 50
